pEC50: −log10 of the molar value.
Key:
MOP (μ-opioid receptor) = biological target: T1, MOP (μ-opioid receptor) (Homo sapiens, UniProt P35372); assay: TR-FRET cAMP assay (LANCE Ultra), inhibition of forskolin-stimulated cAMP; assay type: cell-based
T1 construct: gene OPRM1; full-length receptor stably expressed in CHO-K1 cells (ChanTest)
Description: TR-FRET cAMP assay (LANCE Ultra), inhibition of forskolin-stimulated cAMP on MOP (μ-opioid receptor)

DOP (δ-opioid receptor) = biological target: T2, DOP (δ-opioid receptor) (Homo sapiens, UniProt P41143); assay: as above; assay type: cell-based
T2 construct: gene OPRD1; full-length receptor stably expressed in CHO-K1 cells (ChanTest)
Description: TR-FRET cAMP assay (LANCE Ultra), inhibition of forskolin-stimulated cAMP on DOP (δ-opioid receptor)

T1 sequence (P35372 whole entry): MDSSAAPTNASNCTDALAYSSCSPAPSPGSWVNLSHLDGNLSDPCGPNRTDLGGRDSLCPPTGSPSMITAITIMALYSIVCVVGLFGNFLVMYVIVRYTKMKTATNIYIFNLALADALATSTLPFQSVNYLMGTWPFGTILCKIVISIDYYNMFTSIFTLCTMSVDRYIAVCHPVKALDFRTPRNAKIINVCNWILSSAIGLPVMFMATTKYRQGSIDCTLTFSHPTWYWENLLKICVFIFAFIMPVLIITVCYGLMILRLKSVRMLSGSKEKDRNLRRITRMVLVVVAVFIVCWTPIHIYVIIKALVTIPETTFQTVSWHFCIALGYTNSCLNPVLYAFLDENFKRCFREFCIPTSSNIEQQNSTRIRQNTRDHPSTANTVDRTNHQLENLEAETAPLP
T2 sequence (P41143 whole entry): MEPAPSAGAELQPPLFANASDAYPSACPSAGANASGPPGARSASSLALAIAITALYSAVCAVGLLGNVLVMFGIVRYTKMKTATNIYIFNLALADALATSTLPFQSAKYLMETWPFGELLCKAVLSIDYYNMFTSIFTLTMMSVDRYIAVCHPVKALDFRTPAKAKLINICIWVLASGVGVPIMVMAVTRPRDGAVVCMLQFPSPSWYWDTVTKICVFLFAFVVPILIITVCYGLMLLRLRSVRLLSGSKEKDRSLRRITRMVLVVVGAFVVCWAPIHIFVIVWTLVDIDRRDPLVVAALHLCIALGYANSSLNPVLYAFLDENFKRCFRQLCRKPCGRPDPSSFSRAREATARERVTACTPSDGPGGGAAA

Q: With `CN(C(=O)/C=C/c1ccoc1)[C@@H]1CC[C@@]2(O)[C@H]3Cc4ccc(O)c5c4[C@@]2(CCN3CC2CC2)[C@H]1O5` [Nalfurafine] as the compound, how does the pEC50 (MOP (μ-opioid receptor)) read?
A: 8.11

Q: And the pEC50 (DOP (δ-opioid receptor))?
A: 6.88
